Experiments:
Assay type in all cases: biochemical
[1] = target: T1, JAK3 (Homo sapiens, UniProt P52333); assay: JAK3 kinase assay (HTRF, inhibition of phosphorylation of a synthetic peptide); conditions: catalytic domain, His-tag; 2 μM ATP (Km); read-out: JAK3 kinase inhibitory activity (EC50)
T1 construct: All four purified enzymes contain only the catalytic domain; His (N); purchased Carna Biosciences, Inc; host or cells: baculovirus expression system
Summary of the method: (§1)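 Baculovirus-expressed human catalytic domains (GST-JAK1, GST-TYK2, His-JAK2, His-JAK3) phosphorylated 1 μM TK substrate-biotin at ATP Km (JAK1 7 μM, JAK2 4 μM, JAK3 2 μM, TYK2 13 μM) in pH 7.0 Hepes for 20-30 min at RT, 0.75% DMSO. EDTA stop, then overnight streptavidin-XL665/cryptate-antibody detection and HTRF read.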

[2] = target: T2, TYK2 (Homo sapiens, UniProt P29597); assay: TYK2 kinase assay (HTRF, inhibition of phosphorylation of a synthetic peptide); conditions: catalytic domain aa 871-1187, GST-tag; 13 μM ATP (Km); read-out: TYK2 kinase inhibitory activity (EC50)
T2 construct: JAK1 (aa 850-1154) and TYK2 (aa 871-1187) are expressed with an N-terminally fused GST-tag; GST (N); purchased Carna Biosciences, Inc; host or cells: baculovirus expression system
T2 sequence (P29597 871-1187): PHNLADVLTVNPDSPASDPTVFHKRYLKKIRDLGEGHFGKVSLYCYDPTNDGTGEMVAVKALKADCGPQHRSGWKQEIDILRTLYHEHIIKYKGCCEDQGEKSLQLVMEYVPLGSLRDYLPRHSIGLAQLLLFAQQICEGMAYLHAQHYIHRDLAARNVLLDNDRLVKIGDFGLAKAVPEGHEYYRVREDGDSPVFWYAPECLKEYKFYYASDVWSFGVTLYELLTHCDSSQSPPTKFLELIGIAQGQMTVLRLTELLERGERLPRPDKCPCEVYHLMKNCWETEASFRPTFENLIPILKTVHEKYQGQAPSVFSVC
Description: JAK1, JAK2, JAK3 and TYK2 Kinase Assays:
Human baculovirus-expressed JAK1, 2, 3 and TYK2 were purchased from Carna Biosciences, Inc. All four purified enzymes contain only the catalytic domain. JAK1 (aa 850-1154) and TYK2 (aa 871-1187) are expressed with an N-terminally fused GST-tag, and JAK2 and JAK3 with an N-terminally fused His-tag. Inhibition of phosphorylation of a synthetic peptide was measured in an HTRF-based assay using the TK substrate-Biotin from the CisbioHTRFKinEASE TK kit. First, 2 μl of TK solution (TK substrate-biotin in kinase buffer [1× enzymatic buffer from HTRFKinEASE TK kit, 1 mM DTT]) is added to a plate containing 1 μl prediluted compound (final assay concentration DMSO: 0.75%). Then, 5 μl kinase-ATP mix (prepared in kinase buffer) is added to the wells and the plates are incubated at RT for 20-30 min. For all four kinases a concentration of ATP that corresponded to the Km for ATP was used. The final concentrations of buffers, substrate, kinase and ATP were: JAK1: 50 mMHepes buffer pH 7.0, 0.01% BSA, 10 mM MgCl2, 1 mM DTT, 7 μM ATP, 50 nMSEB, 1 μM TK Substrate-Biotin and 5 ng JAK1; JAK2: 50 mM Hepes buffer pH 7.0, 0.01% BSA, 5 mM MgCl2, 1 mM DTT, 4 μM ATP, 1 μM TK Substrate-Biotin and 0.1 ng JAK2; JAK3: 50 mMHepes buffer pH 7.0, 0.01% BSA, 5 mM MgCl2, 1 mM DTT, 2 μM ATP, 1 μM TK Substrate-Biotin and 0.3 ng JAK3; TYK2: 50 mMHepes buffer pH 7.0, 0.01% BSA, 5 mM MgCl2, 1 mM DTT, 13 μM ATP, 50 nMSEB, 1 μM TK Substrate-Biotin and 0.8 ng TYK2. Thereafter, the kinase reaction is stopped by adding 4 μl detection mix (final concentrations: 50 mM Hepes buffer pH 7.0, 0.01% BSA, 0.8 M KF, 20 mM EDTA, 42 nM Streptavidin-XL665 and 1:400 STKAbCryptate) and the plates are incubated overnight in the dark. The HTRF signal is read using an Envision plate reader.

[3] = target: T3, JAK1 (Homo sapiens, UniProt P23458); assay: JAK1 kinase assay (HTRF, inhibition of phosphorylation of a synthetic peptide); conditions: catalytic domain aa 850-1154, GST-tag; 7 μM ATP (Km); read-out: JAK1 kinase inhibitory activity (EC50)
T3 construct: JAK1 (aa 850-1154) and TYK2 (aa 871-1187) are expressed with an N-terminally fused GST-tag; GST (N); purchased Carna Biosciences, Inc; host or cells: baculovirus expression system
T3 sequence (P23458 850-1154): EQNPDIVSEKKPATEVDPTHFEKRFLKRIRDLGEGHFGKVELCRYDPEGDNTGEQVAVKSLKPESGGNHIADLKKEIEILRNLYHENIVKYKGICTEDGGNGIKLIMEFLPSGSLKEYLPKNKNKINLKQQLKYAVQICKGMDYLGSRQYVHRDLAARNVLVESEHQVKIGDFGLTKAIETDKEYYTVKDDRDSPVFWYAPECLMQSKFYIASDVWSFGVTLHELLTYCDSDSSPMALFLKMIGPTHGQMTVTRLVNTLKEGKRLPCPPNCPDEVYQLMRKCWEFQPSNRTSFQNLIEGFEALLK
Summary of the method: as §1

[4] = target: T4, JAK2 (Homo sapiens, UniProt O60674); assay: JAK2 kinase assay (HTRF, inhibition of phosphorylation of a synthetic peptide); conditions: catalytic domain, His-tag; 4 μM ATP (Km); read-out: JAK2 kinase inhibitory activity (EC50)
T4 construct: All four purified enzymes contain only the catalytic domain; His (N); purchased Carna Biosciences, Inc; host or cells: baculovirus expression system
T4 sequence (O60674 849-1124 limits assumed): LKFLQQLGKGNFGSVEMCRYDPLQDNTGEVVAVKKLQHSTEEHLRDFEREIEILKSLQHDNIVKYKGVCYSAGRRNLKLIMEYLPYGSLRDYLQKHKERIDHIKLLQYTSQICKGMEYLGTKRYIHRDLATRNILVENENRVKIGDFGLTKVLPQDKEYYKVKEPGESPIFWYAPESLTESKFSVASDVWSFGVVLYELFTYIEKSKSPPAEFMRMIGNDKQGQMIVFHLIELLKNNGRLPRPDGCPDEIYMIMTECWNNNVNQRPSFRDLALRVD
Summary of the method: as §1

T1 sequence (P52333 822-1111 limits assumed): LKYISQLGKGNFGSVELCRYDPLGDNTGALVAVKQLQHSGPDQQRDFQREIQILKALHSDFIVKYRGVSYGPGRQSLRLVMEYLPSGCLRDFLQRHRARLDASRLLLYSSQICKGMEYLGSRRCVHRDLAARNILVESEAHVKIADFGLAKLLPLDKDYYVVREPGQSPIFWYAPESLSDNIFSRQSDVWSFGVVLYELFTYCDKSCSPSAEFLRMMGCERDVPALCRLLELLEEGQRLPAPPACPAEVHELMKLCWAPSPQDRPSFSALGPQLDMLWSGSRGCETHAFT

For COc1cccc(C(=O)N2CCN(c3ncnc4[nH]ccc34)CC3(CC3)C2)c1OC [Example 2, (2,3-Dimethoxyphenyl)-[8-(7H-pyrrolo[2,3-d]pyrimidin-4-yl)5,8-diazaspiro[2.6]non-5-yl]methanone], the EC50 [1] was > 1 µM, the EC50 [2] was > 1 µM and the EC50 [3] was > 1 µM. For the same molecule, the EC50 [4] was > 1 µM.
With CCCCC(=O)Nc1nc(N2CCCN(Cc3ccccc3)C3(CC3)C2)c2cc[nH]c2n1 [Example 283, N-[4-(9-benzyl-5,9-diazaspiro[2.6]nonan-5-yl)-7H-pyrrolo[2,3-d]pyrimidin-2-yl]pentanamide] the EC50 [1] was > 1 µM, the EC50 [2] was > 1 µM and the EC50 [3] was > 1 µM. The EC50 [4] was > 1 µM.
With NS(=O)(=O)c1ccc2[nH]c(C(=O)N3CCN(c4ncnc5[nH]ccc45)CC4(CC4)C3)cc2c1 [Example 101, 2-[5-(7H-pyrrolo[2,3-d]pyrimidin-4-yl)-5,8-diazaspiro[2.6]nonane-8-carbonyl]-1H-indole-5-sulfonamide] the EC50 [1] was 0.1 to 1 µM, the EC50 [2] was 0.1 to 1 µM and the EC50 [3] was < 0.1 µM. The EC50 [4] was < 0.1 µM.
In the case of NS(=O)(=O)c1ccc(C(=O)N2CCN(c3ncnc4[nH]ccc34)CC3(CC3)C2)o1 [Example 37, 5-[5-(7H-pyrrolo[2,3-d]pyrimidin-4-yl)-5,8-diazaspiro[2.6]nonane-8-carbonyl]furan-2-sulfonamide], the EC50 [1] is reported as 0.1 to 1 µM, the EC50 [2] is reported as > 1 µM and the EC50 [3] is reported as 0.1 to 1 µM. The EC50 [4] was < 0.1 µM.
For N#Cc1ccc2[nH]c(C(=O)N3CCN(c4ncnc5[nH]ccc45)CC4(CC4)C3)cc2c1 [Example 8, 2-[8-(7H-pyrrolo[2,3-d]pyrimidin-4-yl)-5,8-diazaspiro[2.6]nonane-5-carbonyl]-1H-indole-5-carbonitrile], the EC50 [1] was 0.1 to 1 µM, the EC50 [2] was > 1 µM and the EC50 [3] was < 0.1 µM. For the same molecule, the EC50 [4] was 0.1 to 1 µM.
In the case of N#Cc1ccc(OCC(=O)N2CCN(c3ncnc4[nH]ccc34)CC3(CC3)C2)cc1 [Example 106, 4-[2-oxo-2-[5-(7H-pyrrolo[2,3-d]pyrimidin-4-yl)-5,8-diazaspiro[2.6]nonan-8-yl]ethoxy]benzonitrile], the EC50 [1] is reported as 0.1 to 1 µM, the EC50 [2] is reported as 0.1 to 1 µM and the EC50 [3] is reported as < 0.1 µM. For the same molecule, the EC50 [4] was < 0.1 µM.
With COc1cc(S(N)(=O)=O)ccc1C(=O)N1CCN(c2ncnc3[nH]ccc23)CC2(CC2)C1 [Example 52, 3-methoxy-4-[5-(7H-pyrrolo[2,3-d]pyrimidin-4-yl)-5,8-diazaspiro[2.6]nonane-8-carbonyl]benzenesulfonamide] the EC50 [1] was 0.1 to 1 µM, the EC50 [2] was > 1 µM and the EC50 [3] was 0.1 to 1 µM. The EC50 [4] was < 0.1 µM.
With NS(=O)(=O)c1cccc(C(=O)N2CCN(c3ncnc4[nH]ccc34)CC3(CC3)C2)c1 [Example 73, 3-[5-(7H-pyrrolo[2,3-d]pyrimidin-4-yl)-5,8-diazaspiro[2.6]nonane-8-carbonyl]benzenesulfonamide] the EC50 [1] was 0.1 to 1 µM, the EC50 [2] was > 1 µM and the EC50 [3] was 0.1 to 1 µM. For the same molecule, the EC50 [4] was 0.1 to 1 µM.
With N#CC1(C(=O)N2CCN(c3ncnc4[nH]ccc34)CC3(CC3)C2)CCCC1 [Example 40, 1-[5-(7H-pyrrolo[2,3-d]pyrimidin-4-yl)-5,8-diazaspiro[2.6]nonane-8-carbonyl]cyclopentanecarbonitrile] the EC50 [1] was 0.1 to 1 µM, the EC50 [2] was > 1 µM and the EC50 [3] was > 1 µM. It also gave an EC50 [4] of 0.1 to 1 µM.
In the case of CCCCN1CCCN(c2ncnc3[nH]ccc23)CC12CC2 [Example 281, 4-(9-butyl-5,9-diazaspiro[2.6]nonan-5-yl)-7H-pyrrolo[2,3-d]pyrimidine], the EC50 [1] is reported as 0.1 to 1 µM, the EC50 [2] is reported as > 1 µM and the EC50 [3] is reported as 0.1 to 1 µM. It also gave an EC50 [4] of 0.1 to 1 µM.

— US9586961B2, “Homopiperazine derivatives as protein tyrosine kinase inhibitors and pharmaceutical use thereof” (LEO PHARMA A/S, priority 2010, dated 2017)
